Data from PMC3091966 (2011).

How the values were obtained:
[1] = target: T1, human αβγ ENaC (α subunit) (Homo sapiens, UniProt P37088+P51168+P51170); experiment: two-electrode voltage clamp in Xenopus oocytes, external perfusion; format: cell-based
T1 sequence (P37088 1-669): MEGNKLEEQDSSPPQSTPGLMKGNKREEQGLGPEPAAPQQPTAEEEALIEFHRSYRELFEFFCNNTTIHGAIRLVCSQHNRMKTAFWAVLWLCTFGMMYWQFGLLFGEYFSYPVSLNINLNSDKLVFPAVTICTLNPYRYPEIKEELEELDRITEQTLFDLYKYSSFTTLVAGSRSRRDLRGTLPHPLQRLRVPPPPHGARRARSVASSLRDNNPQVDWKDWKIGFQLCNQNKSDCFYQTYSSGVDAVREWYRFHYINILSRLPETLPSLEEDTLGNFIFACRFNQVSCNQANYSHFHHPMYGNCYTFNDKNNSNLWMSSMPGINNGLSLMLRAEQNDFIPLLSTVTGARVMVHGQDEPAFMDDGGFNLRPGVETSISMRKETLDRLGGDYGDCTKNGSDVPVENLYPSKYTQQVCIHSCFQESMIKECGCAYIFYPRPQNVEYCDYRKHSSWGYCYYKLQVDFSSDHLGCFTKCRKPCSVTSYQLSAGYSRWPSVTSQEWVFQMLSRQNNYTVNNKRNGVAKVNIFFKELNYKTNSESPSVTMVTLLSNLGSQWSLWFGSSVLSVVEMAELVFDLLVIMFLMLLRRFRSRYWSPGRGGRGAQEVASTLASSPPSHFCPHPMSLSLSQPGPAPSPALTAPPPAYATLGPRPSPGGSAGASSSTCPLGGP
T1 sequence (P51168 1-640): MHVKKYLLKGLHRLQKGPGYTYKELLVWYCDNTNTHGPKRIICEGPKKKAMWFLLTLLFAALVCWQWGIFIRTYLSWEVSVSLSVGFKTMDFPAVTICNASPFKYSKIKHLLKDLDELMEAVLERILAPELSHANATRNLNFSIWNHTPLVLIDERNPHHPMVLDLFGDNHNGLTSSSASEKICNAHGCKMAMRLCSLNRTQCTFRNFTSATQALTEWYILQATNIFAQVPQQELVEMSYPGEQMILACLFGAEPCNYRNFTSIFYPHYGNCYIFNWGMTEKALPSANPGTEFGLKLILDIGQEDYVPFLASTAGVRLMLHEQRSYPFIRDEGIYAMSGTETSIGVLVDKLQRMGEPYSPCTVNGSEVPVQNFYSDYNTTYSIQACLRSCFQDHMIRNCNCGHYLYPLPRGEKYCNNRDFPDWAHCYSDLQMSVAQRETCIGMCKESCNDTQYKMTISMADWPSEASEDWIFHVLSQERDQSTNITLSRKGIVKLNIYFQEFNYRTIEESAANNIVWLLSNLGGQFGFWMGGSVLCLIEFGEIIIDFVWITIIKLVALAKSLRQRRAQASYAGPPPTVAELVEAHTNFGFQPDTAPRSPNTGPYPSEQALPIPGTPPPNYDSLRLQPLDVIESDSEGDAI
T1 sequence (P51170 1-649): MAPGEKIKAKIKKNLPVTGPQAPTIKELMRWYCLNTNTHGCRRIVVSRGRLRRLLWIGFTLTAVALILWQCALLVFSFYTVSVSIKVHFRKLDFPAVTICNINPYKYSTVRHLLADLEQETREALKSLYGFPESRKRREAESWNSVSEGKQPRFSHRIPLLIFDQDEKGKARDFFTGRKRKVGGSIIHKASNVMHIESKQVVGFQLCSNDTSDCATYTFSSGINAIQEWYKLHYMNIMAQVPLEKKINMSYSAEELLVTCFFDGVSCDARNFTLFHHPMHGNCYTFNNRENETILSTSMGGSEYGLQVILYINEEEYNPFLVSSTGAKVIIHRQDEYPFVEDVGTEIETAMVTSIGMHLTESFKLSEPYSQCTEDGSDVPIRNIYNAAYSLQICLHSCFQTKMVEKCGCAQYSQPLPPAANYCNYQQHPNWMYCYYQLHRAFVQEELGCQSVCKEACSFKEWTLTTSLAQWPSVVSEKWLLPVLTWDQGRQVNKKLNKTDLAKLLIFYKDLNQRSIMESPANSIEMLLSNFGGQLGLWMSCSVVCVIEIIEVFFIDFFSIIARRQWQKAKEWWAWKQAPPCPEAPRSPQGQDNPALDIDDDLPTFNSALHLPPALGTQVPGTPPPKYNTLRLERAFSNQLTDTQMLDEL

[2] = target: T1, human αβγ ENaC (α subunit); experiment: two-electrode voltage clamp in Xenopus oocytes, block of current; format: cell-based

Row | EC50 [1] [µM] | SMILES | two-electrode voltage clamp in Xenopus oocytes, block of current [2]
1 | 49 ± 14 | Nc1ncnc2c1nc(Sc1ccc(Cl)cc1)n2[C@@H]1O[C@@H]2COP(=O)(O)O[C@H]2[C@H]1O [cpt-cAMP] | –
2 | – | N=C(N)NC(=O)c1nc(Cl)c(N)nc1N [amiloride] | Both basal and elevated currents were sensitive to amiloride.
